These results are taken from PMC7355937, “Structure-Based Discovery of Dual-Target Hits for Acetylcholinesterase and the α7 Nicotinic Acetylcholine Receptors: In Silico Studies and In Vitro Confirmation” (Molecules, 2020).

Experiment [1] deals with T1, human recombinant AChE (Homo sapiens, UniProt P22303).
T1 construct: purchased Sigma-Aldrich Co. LLC C1682
Kind of experiment: biochemical. The following applies: for inhibition at 200 µM: compound soluble in MeOH; for AChE %Inhibition of supernatant (MeOH): poorly soluble compound, methanol supernatant tested, nominal 200 µM. The method, then: For five poorly soluble compounds, the methanol supernatants were tested. Ellman’s colorimetric analysis is based on the breakdown of acetylthiocholine (ATCI) by AChE to thiocholine and acetic acid. Ellman’s reagent in turn reacts with the thiol group of thiocholine resulting in a yellow color indicating the extent of enzymatic activity. […] In vitro AChE inhibitory activity was studied using the colorimetric method of Ellman using human recombinant AChE enzyme. To a 96-well microplate, test solutions were applied along with 1 mg/mL bovine serum albumin, 0.5 mM 5,5-dithiobis-(2-nitro-benzoic acid), and 0.5 mM acetylthiocholine iodide. […] Experiments were conducted in triplicate.
(§1) Data analysis was performed as reported previously. […] During analysis, traces were baseline subtracted and responses to individual applications quantified as peak-current amplitudes. Statistical calculations were performed using GraphPad Prism 7 (GraphPad Software, GraphPad, San Diego, CA, USA). Activation of the α7 nAChR was calculated as a percentage of Emax response to ACh. For evaluation of the inhibitory activity, the percentage of remaining peak-current amplitudes relative to that of the AChcontrol (EC20) application was calculated. AChE inhibition data were analyzed using GraphPad Prism 7. Absorption readings from the AChE inhibition assay were plotted versus time and linear regression was performed. […] Data were fitted with the slope set to 1 and remaining current amplitude at infinitely high compound concentrations set to 0.

In experiment [2] the target is T2, human α7 nAChR (Homo sapiens, UniProt P36544).
T2 construct: expressed in transfected cells; host or cells: Xenopus laevis oocytes (cRNA injection)
T2 sequence (P36544 23-502): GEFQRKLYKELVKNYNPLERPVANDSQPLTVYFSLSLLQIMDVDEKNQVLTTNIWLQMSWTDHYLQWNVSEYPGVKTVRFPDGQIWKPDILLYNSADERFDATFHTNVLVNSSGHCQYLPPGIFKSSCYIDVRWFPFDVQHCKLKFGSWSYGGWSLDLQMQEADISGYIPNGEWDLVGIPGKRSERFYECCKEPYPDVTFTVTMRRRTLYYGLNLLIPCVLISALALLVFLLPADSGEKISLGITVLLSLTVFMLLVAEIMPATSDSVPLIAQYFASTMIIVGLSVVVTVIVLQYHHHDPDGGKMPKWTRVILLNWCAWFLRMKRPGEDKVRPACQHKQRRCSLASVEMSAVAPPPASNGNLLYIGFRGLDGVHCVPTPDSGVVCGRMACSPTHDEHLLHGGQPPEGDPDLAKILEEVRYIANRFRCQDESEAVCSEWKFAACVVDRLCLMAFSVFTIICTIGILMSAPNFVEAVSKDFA
The experiment can be described thus: α7 nAChR direct activation (agonist test), two-electrode voltage-clamp electrophysiology in Xenopus oocytes. The following applies: for activation at 200 µM: read-out: α7 nAChR %Activation. The experiment is classed as cell-based. The method, then: (§2) Compounds were tested for direct activation of the α7 nAChR in a 0.2–200 µM concentration range. Compounds displaying less than 1% direct activation were further evaluated at 100 µM for their ability to alter currents evoked by 30 µM ACh.
(§3) Xenopus laevis oocytes were obtained as described previously, briefly, ovary lobes were removed by surgical incision, sliced into small pieces and defolliculated by collagenase treatment. […] Stage V and VI oocytes were injected with a total of ~25 ng of cRNA encoding human α7 nAChR with RIC3 (in 5:1 ratio), a protein enhancing the expression of the receptor. Injected oocytes were incubated for 3–5 days at 18 °C in a saline solution (96 mM NaCl, 2 mM KCl, 1 mM MgCl2, 1.8 mM CaCl2, 5 mM HEPES (hemisodium, pH 7.4)) supplemented with 2.5 mM sodium pyruvate, 0.5 mM theophylline, and 50 µM gentamycin.
(§4) Electrophysiological recordings from Xenopus laevis oocytes were performed using the two-electrode voltage-clamp technique as described previously. Briefly, oocytes were placed in a custom-built recording chamber and continuously perfused with a saline solution. The saline solution contained 96 mM NaCl, 2 mM KCl, 1 mM MgCl2, 1.8 mM CaCl2, 5 mM HEPES (hemisodium, pH 7.4). Pipettes were backfilled with 3 M KCl and open-pipette resistances ranged from 0.3 to 1.5 MΩ when submerged in the saline solution. Oocytes were voltage clamped at a holding potential of −60 mV using an Axon Geneclamp 500B amplifier (Molecular Devices, LLC, San Jose, CA, USA). Rapid solution exchange in the oocyte vicinity (order of a few seconds) was ensured by application through a 1.5 mm diameter capillary tube placed approximately 2 mm from the oocyte as described previously. The solution flow rate through the capillary was 2.0 mL/min. […] Thereafter, test compounds in increasing concentration were applied (25 s), the maximal tested concentration was 200 µM. A wash period of at least 2 min was kept between each application. […] In these experiments, 10 and 100 µM concentration of a test compound was co-applied with 30 µM ACh. Peak current amplitudes were normalized with respect to the amplitude of current elicited by 3 mM or 30 µM ACh for the agonist and antagonist test, respectively. All experiments were conducted at least in triplicate.
as §1
Background: In two-electrode clamp one electrode senses voltage and the other passes current.

In experiment [3] the target is T2, human α7 nAChR. Kind of experiment: α7 nAChR inhibition of ACh-evoked currents (antagonist test), two-electrode voltage-clamp electrophysiology in Xenopus oocytes. The format is cell-based. The following applies: -60 mV. The method, then:
as §2, §3, §4, §1

The subject of experiment [4] is α7 nAChR. The following applies: cited from earlier work.
Where [5] appears, read: five to eight concentrations, read-out: AChE IC50.
[6] abbreviates: 200 µM, normalized to 3 mM ACh response, -60 mV.
Where [7] appears, read: 100 µM compound co-applied with 30 µM ACh, read-out: α7 nAChR %Inhibition.

Several values for one entry are separate records, joined by “and”; a condition that tells them apart may be missing. Equal entries are not always repeated. Where two headings read alike, the source gives them in different places.

T1 sequence (P22303 32-614): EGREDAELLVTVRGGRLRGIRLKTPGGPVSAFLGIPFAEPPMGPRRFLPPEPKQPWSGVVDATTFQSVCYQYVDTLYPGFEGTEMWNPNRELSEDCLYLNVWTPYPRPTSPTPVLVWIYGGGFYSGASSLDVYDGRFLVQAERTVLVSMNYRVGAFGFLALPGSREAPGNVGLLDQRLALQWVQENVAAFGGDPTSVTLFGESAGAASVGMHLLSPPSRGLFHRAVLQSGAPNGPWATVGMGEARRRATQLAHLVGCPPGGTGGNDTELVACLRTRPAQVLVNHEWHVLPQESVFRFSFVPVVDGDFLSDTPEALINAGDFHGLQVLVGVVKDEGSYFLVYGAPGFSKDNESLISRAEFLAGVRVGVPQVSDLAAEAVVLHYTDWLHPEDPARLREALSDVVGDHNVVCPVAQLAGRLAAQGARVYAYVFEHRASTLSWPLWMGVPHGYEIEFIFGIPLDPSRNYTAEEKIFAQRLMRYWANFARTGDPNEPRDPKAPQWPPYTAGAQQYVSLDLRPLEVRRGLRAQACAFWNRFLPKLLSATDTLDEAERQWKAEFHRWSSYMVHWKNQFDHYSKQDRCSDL

As to `CN(C)Cc1ccc(-c2ccc(N(C)C)nc2)nc1` [Compound 6], the inhibition at 200 µM in experiment [1] stood at 76.1%. In addition, in experiment [1] (setting [5]), the IC50 stood at 58.5 µM. The activation at 200 µM in experiment [2] (setting [6]) was determined as 0.4%. Also, the inhibition at 100 µM in experiment [3] (setting [7]) worked out at 47.2%.
For the compound `c1cc(-c2ccc(-c3ccc(CN4CCCC4)cn3)cc2)n[nH]1` [Compound 8], the “AChE %Inhibition of supernatant (MeOH)” value in experiment [1] is on record as 100%. Also, the activation at 200 µM in experiment [2] (setting [6]) was determined as 0.3%. Moreover, the inhibition at 100 µM in experiment [3] (setting [7]) turned out to be 59%.
The matching figures for `O[C@@H]1c2ccc(-c3cccnc3)cc2OC[C@H]1N1CCCC1` [Compound 9]: 45.9 ± 3.8%, 1% and 66.7%.
`O=C(Nc1cccc(CN2CCCCC2)c1)c1ccccc1F` [Compound 10]: the inhibition at 200 µM in experiment [1] is 90.8%. In addition, in experiment [1] (setting [5]), the IC50 came out at 11.3 µM. Moreover, the activation at 200 µM in experiment [2] (setting [6]) is 0.3%. Further, the inhibition at 100 µM in experiment [3] (setting [7]) was determined as 85%.
As for `O=C(Nc1ccc(CN2CCCCC2)cc1)c1ccc(Cl)cc1` [Compound 11], in experiment [1], the “AChE %Inhibition of supernatant (MeOH)” value worked out at 100%. Moreover, in experiment [2] (setting [6]), the activation at 200 µM was 0.7%. Moreover, the inhibition at 100 µM in experiment [3] (setting [7]) came out at 73.3%.
For `O=c1[nH]c2ccccc2c(=O)n1-c1ccc(CN2CCCC2)cc1` [Compound 12], in that order: 63.7 ± 4.4%, 0.3% and 81.7%.
Regarding `Cc1cccc(NC(=O)c2ccc(CN3CCCCCC3)cc2)c1C` [Compound 13], the inhibition at 200 µM in experiment [1] worked out at 82.5%. Moreover, the IC50 in experiment [1] (setting [5]) came out at 30.2 µM. Besides, in experiment [2] (setting [6]), the activation at 200 µM was found to be 0.7%. Also, the inhibition at 100 µM in experiment [3] (setting [7]) came out at 68%.
The matching figures for `CC(=O)c1cccc(NC(=O)c2ccc(CN3CCCCC3)cc2)c1` [Compound 14]: 100%, 1.1 µM, 0.3% and 60%.
As to `O=C(Nc1cccc(CN2CCCC2)c1)C1=Cc2cc(Cl)ccc2OC1` [Compound 16], in experiment [1], the “AChE %Inhibition of supernatant (MeOH)” value was determined as 100%. Also, the activation at 200 µM in experiment [2] (setting [6]) turned out to be 1%. The inhibition at 100 µM in experiment [3] (setting [7]) turned out to be 90.7%.
For the compound `CN(C(=O)Cc1ccsc1)[C@H]1CCC[C@H](N2CCCC2)[C@H]1O` [Compound 17], in experiment [1], the inhibition at 200 µM worked out at 22.9%.
On to `CC(=O)c1cccc(NC(=O)c2ccc(CN3CCCCCC3)cc2)c1` [Compound 18], for which, in experiment [1], the inhibition at 200 µM worked out at 91.6%. In addition, the IC50 in experiment [1] (setting [5]) worked out at 17.9 µM. Further, in experiment [2] (setting [6]), the activation at 200 µM was determined as 0.7%. Further, the inhibition at 100 µM in experiment [3] (setting [7]) amounted to 68.7%.
For `C[C@H]1CCCN(Cc2ccc(NC(=O)CCc3ccc(C#N)cc3)cc2)C1` [Compound 20], in that order: 86%, 33.5 µM, 0.3% and 94.3%.
Take `Nc1nc(-c2ccsc2)cc(N(Cc2ccccn2)Cc2ccccn2)n1` [Compound 44, N4,N4-bis[(pyridin-2-yl)methyl]-6-(thiophen-3-yl)pyrimidine-2,4-diamine]: the α7-pEC50 in experiment [4] was 6.3.
Take `Cc1nnc2ncc(-c3ccc(C(C)N(C)C)cc3)cn12` (centres unmarked) [Ýmir-2 (7), N,N-dimethyl-1-(4-(3-methyl-[1,2,4]triazolo[4,3-a]pyrimidin-6-yl)phenyl)ethan-1-amine]: the inhibition at 200 µM in experiment [1] was 98.4%. Also, the IC50 in experiment [1] (setting [5]) is 2.58 µM. Besides, in experiment [2] (setting [6]), the “α7 nAChR %Activation” value was 7.0% and 7.0 ± 0.9%. For the same compound, in experiment [2], the activation at 200 µM is 7 ± 0.9%.
As for `Cc1ccc2cc(NC(=O)NCCN3CCCC3)ccc2n1` [Ýmir-10 (15)], in experiment [1], the inhibition at 200 µM was determined as 66.6%. Moreover, the IC50 in experiment [1] (setting [5]) was found to be 115 µM. The “α7 nAChR %Activation” value in experiment [2] (setting [6]) is 2.3% and 2.3 ± 0.4%. In addition, the activation at 200 µM in experiment [2] was found to be 2.3 ± 0.4%.
On to `Cc1cc(F)ccc1S(=O)(=O)NCc1ccc(CN2CCCC2)cc1` [Ýmir-14 (19)], for which the inhibition at 200 µM in experiment [1] was found to be 100%. Further, the IC50 in experiment [1] (setting [5]) is 1.32 µM. The activation at 200 µM in experiment [2] (setting [6]) worked out at 0.7%. Moreover, in experiment [3] (setting [7]), the inhibition at 100 µM is 96%.
With `O=C(Nc1nc(CN2CCCCC2)cs1)c1cc(O)nc2ccccc12` [Ýmir-16 (21)], in experiment [1], the inhibition at 200 µM came to 87.7%. Further, the IC50 in experiment [1] (setting [5]) is 7.76 µM; in experiment [1] (read-out: AChE pIC50 ± SEM (converted)), 7.94 µM. For the same compound, the activation at 200 µM in experiment [2] (setting [6]) came to 0.3%. The “α7 nAChR %Inhibition” value in experiment [3] (100 µM compound co-applied with 30 µM ACh) is 97.3 ± 1%. For the same compound, the inhibition at 100 µM in experiment [3] (read-out: α7 nAChR %Inhibition, 100 µM compound co-applied with 30 µM ACh) was found to be 97%.

In general, inhibition refers to how much of the control response was suppressed.
